Assay results published in PMC10140010 (Investigational New Drugs, 2023).
Where two headings read alike, the source gives them in different places.

How the values were obtained:
MST4 = MST4 (Homo sapiens, UniProt Q9P289); test: Z'-LYTE kinase selectivity; type: biochemical
P38 alpha = P38 alpha (Homo sapiens, UniProt Q16539); test: Z'-LYTE kinase selectivity; type: biochemical
[1] = tested on: phosphorylation of ALK, AKT, ERK, STAT3 and STAT5 in NCI-H3122 tumor tissue; test: Phosphorylation of downstream signal molecules in tumor tissue of NCI-H3122 xenograft; type: in vivo, BALB/c nude mice; conditions: 8 h after administration
Protocol: In general, the cells were exposed to the drug and were harvested for western blot analysis. SDS-PAGE was used to separate the proteins of interest, which were then transferred to a nitrocellulose (NC) filtration membrane and soaked in a blocking solution [5% non-fat dry milk in tris-buffered saline with Tween 20 (TBST)] for 1 h at room temperature. Thereafter, the membrane was probed overnight with primary antibodies at 4℃ and washed three times with TBST. The corresponding secondary antibody diluent was added, incubated at room temperature for 1 h, and washed 3 times with TBST. After adding the enhanced chemiluminescence developer to the NC filtration membrane, it is developed in the imaging system (ChemiDoc™ XRS^+, BIO-RAD). See Supplementary Table 2 for details of the antibodies used.
In order to check how iruplinalkib exerts its anti-tumor effects in vivo, tumor tissue samples were collected at 1 and 8 h after the last dose, and the phosphorylation level of downstream signaling pathways molecules were detected.

MAPKAPK2 = MAPKAPK2 (Homo sapiens, UniProt P49137); test: Z'-LYTE kinase selectivity; type: biochemical
Ba/F3 cells = test: Cell proliferation (CellTiter-Glo); type: cell-based
Protocol: (§1) Cell proliferation assay was performed using methods reported in the previous article. Cell proliferation was measured using the CellTiter-Glo® (CTG) Luminescent Cell Viability Assay (Promega, WI, USA). Cells were seeded in 96-well plates at 15,000 cells per well in detection medium containing 0.5% fetal bovine serum and placed in an incubator at 37℃ and 5% CO2 overnight. On the following day, iruplinalkib was serially diluted with DMSO, further diluted in assay medium, and added to the designated wells for serial dilution of iruplinalkib to the target gradient concentration.

[2] = tested on: NIH-3T3 (CD74-ROS1) cells; test: Cell proliferation (CellTiter-Glo); type: cell-based
Protocol: as §1

[3] = tested on: Ba/F3 (SLC34A2-ROS1) cells; test: Cell proliferation (CellTiter-Glo); type: cell-based
Protocol: as §1

[4] = tested on: HCC-78 (SLC34A2-ROS1) cells; test: Cell proliferation (CellTiter-Glo); type: cell-based
Protocol: as §1

[5] = tested on: NCI-H1975 (EGFR^L858R/T790M) cells; test: Cell proliferation (CellTiter-Glo); type: cell-based
Protocol: as §1

[6] = tested on: Karpas299 (NPM-ALK) cells; test: Cell proliferation (CellTiter-Glo); type: cell-based
Protocol: as §1

[7] = tested on: Ba/F3 (EML4-ALK^C1156Y) cells; test: Cell proliferation (CellTiter-Glo); type: cell-based
Protocol: as §1
(§2) Transfection was performed when cell confluent reached 70–90% in 12-well plates. Opti-MEM medium was used to dilute Lipofectamine 3000 reagent (ThermoFisher, MA, USA) and siRNA separately and mixed well. The mixture was added to the cells after incubation at room temperature for 15 min, then at 37℃ for 2–4 days.

[8] = tested on: Ba/F3 (EML4-ALK^WT) cells; test: Cell proliferation (CellTiter-Glo); type: cell-based
Protocol: as §1, §2

SRC = SRC (Homo sapiens, UniProt P12931); test: Z'-LYTE kinase selectivity; type: biochemical
KDR = KDR (Homo sapiens, UniProt P35968); test: Z'-LYTE kinase selectivity; type: biochemical
c-MET = c-MET (Homo sapiens, UniProt P08581); test: Z'-LYTE kinase selectivity; type: biochemical
CHK1 = CHK1 (Homo sapiens, UniProt O14757); test: Z'-LYTE kinase selectivity; type: biochemical
MINK = MINK (Homo sapiens, UniProt Q8N4C8); test: Z'-LYTE kinase selectivity; type: biochemical
OATP1B3 = test: Uptake inhibitor investigation in HEK293 cells expressing transporter; type: in vitro ADME
EGFR wild type = EGFR wild type (Homo sapiens, UniProt P00533); test: Z'-LYTE kinase selectivity; conditions: read-out: IC50 EGFR wild type
FGFR1 = FGFR1 (Homo sapiens, UniProt P11362); test: Z'-LYTE kinase selectivity
OCT2 = target: T1, OCT2 (Homo sapiens, UniProt O15244); test: Uptake substrate investigation in HEK293 cells expressing transporter; type: in vitro ADME; conditions: for Uptake transport activity, Mean / Ratio of uptake transit activity / Uptake transport activity, Net value: Suppl. Table 11; for Ratio of uptake transit activity / Uptake transport activity, Net value: OCT2-293 vs MOCK293
T1 construct: No ESH9G27; host or cells: HEK293
T1 sequence (O15244 1-555): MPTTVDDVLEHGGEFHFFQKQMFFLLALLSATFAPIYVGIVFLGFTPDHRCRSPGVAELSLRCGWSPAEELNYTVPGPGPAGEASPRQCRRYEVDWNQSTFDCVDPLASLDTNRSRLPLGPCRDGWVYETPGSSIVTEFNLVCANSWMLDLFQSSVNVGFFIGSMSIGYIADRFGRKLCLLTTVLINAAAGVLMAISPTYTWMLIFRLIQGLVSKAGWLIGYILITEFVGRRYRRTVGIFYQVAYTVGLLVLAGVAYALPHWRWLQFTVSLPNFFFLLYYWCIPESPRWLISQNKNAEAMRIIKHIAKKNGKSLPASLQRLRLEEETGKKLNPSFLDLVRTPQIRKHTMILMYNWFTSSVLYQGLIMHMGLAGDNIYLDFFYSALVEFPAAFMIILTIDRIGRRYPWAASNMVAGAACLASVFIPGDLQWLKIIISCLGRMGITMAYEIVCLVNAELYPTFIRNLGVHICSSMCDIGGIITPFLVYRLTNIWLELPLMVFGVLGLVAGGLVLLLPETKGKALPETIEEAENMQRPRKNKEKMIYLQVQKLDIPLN

[9] = human, HEK293 cells expressing OATP1B3, probe ATV (atorvastatin), 1 μM, read-out: Inhibition rate

Sequence of MINK (Q8N4C8 whole entry): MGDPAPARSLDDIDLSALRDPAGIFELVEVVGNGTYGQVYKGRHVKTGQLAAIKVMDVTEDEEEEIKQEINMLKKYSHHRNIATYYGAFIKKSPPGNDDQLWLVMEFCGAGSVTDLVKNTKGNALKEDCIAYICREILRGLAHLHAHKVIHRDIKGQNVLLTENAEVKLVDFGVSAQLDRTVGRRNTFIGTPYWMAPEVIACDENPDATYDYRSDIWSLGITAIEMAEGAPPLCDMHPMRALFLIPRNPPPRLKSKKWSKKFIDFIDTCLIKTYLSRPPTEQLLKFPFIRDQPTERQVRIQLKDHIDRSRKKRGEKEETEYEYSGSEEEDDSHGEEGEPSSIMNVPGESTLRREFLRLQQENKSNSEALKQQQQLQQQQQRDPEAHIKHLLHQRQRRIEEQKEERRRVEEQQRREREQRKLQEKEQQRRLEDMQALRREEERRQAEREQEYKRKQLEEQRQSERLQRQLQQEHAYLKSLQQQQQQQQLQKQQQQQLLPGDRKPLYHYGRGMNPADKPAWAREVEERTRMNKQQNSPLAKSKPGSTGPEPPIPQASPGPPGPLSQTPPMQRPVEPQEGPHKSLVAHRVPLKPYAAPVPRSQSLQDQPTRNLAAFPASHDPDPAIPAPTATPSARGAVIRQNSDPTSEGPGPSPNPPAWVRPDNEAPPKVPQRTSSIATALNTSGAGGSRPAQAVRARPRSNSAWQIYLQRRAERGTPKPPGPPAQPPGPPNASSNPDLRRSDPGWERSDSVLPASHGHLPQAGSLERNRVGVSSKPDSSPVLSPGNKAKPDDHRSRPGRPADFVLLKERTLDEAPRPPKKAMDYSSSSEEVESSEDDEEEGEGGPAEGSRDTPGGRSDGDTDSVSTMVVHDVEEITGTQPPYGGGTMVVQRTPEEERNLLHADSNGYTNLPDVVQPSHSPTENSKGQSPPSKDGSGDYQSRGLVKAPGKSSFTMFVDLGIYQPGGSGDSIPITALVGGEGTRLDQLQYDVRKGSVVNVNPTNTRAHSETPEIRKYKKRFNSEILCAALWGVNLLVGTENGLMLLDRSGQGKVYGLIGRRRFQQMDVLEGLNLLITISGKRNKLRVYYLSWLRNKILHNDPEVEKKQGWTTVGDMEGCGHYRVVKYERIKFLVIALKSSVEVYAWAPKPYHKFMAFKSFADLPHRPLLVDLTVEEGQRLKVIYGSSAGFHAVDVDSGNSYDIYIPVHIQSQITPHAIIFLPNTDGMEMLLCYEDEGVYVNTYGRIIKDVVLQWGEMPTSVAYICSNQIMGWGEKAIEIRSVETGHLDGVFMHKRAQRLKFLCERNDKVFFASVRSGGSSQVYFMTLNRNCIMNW
Sequence of c-MET (P08581 25-1390): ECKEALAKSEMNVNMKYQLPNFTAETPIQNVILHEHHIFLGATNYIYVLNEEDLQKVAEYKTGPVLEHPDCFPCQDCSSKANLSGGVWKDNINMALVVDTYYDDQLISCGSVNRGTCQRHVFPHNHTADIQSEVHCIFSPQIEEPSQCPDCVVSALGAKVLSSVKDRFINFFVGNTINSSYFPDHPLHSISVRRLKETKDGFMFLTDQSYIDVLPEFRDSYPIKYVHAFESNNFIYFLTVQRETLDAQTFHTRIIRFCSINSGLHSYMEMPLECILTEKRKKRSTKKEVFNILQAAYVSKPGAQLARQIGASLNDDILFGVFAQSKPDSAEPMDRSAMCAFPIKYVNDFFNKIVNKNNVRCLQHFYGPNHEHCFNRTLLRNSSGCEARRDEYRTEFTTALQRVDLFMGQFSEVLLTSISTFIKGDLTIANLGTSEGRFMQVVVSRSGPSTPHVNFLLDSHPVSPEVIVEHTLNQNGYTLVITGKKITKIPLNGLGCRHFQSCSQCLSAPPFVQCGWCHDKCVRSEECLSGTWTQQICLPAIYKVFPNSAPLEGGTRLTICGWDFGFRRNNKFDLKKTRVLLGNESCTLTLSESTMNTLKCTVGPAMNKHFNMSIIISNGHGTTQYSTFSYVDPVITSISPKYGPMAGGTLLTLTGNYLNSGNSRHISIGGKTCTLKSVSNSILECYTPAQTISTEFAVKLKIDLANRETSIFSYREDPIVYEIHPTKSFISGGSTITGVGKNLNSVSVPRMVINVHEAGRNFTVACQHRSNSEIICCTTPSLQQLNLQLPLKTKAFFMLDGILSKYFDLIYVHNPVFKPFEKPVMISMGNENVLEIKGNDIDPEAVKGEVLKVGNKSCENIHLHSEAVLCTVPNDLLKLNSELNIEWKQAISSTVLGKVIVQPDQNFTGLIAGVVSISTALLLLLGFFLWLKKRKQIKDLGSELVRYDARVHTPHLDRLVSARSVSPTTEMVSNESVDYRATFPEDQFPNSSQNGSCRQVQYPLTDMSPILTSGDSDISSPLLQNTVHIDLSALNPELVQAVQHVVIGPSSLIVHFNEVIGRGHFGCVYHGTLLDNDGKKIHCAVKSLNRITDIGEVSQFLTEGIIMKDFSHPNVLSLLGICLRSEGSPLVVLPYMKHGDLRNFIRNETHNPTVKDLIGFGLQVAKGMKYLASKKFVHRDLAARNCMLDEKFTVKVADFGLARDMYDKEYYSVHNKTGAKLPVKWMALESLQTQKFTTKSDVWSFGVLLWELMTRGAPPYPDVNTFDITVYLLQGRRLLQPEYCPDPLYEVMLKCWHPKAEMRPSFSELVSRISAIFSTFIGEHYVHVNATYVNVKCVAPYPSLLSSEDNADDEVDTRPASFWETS
Sequence of SRC (P12931 whole entry): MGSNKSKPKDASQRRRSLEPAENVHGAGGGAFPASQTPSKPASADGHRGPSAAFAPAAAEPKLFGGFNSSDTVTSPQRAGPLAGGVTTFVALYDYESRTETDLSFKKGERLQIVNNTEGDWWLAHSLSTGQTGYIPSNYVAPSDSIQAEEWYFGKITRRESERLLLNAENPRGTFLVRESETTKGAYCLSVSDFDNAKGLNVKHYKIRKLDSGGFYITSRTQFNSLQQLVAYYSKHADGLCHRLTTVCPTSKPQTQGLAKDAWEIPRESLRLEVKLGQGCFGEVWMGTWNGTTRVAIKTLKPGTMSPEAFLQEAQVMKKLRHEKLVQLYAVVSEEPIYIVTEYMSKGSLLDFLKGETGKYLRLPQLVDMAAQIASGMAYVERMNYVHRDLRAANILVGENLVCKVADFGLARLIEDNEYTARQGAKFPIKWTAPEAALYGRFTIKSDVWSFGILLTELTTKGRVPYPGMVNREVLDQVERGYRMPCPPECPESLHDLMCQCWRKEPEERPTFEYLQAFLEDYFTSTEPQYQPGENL
Sequence of MST4 (Q9P289 whole entry): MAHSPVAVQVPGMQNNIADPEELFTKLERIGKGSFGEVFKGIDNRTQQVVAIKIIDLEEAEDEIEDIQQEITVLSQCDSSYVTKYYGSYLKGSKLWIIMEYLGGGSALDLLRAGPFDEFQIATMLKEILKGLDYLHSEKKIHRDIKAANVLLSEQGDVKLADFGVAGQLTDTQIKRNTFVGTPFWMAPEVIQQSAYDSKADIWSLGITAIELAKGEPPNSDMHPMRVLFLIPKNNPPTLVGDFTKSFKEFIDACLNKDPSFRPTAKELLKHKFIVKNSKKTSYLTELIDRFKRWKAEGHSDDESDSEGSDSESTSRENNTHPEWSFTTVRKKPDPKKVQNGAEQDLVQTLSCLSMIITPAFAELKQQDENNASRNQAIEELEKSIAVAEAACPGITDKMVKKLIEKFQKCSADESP
Sequence of MAPKAPK2 (P49137 whole entry): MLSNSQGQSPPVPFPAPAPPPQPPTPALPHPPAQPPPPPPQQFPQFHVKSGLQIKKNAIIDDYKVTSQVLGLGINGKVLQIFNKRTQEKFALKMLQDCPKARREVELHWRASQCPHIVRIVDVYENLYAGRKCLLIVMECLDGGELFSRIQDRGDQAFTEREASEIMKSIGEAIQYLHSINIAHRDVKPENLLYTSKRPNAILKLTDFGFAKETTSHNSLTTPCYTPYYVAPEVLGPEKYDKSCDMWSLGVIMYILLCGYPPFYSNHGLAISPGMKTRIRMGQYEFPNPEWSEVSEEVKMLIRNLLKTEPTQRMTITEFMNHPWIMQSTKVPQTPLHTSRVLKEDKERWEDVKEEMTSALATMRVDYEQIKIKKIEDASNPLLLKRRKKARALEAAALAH
Sequence of CHK1 (O14757 whole entry): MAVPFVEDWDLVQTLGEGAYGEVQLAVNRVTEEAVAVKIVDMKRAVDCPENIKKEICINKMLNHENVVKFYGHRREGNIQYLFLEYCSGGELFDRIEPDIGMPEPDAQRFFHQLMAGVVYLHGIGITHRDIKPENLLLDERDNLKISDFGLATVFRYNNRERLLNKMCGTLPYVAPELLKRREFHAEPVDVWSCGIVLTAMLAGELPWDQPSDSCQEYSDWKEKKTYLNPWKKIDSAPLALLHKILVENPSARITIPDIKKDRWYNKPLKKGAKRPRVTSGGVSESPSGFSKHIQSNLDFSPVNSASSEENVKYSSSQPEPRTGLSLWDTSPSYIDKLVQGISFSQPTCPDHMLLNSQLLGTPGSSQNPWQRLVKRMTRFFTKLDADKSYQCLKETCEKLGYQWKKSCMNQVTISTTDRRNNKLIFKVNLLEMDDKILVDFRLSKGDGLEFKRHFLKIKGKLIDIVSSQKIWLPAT
Sequence of P38 alpha (Q16539 whole entry): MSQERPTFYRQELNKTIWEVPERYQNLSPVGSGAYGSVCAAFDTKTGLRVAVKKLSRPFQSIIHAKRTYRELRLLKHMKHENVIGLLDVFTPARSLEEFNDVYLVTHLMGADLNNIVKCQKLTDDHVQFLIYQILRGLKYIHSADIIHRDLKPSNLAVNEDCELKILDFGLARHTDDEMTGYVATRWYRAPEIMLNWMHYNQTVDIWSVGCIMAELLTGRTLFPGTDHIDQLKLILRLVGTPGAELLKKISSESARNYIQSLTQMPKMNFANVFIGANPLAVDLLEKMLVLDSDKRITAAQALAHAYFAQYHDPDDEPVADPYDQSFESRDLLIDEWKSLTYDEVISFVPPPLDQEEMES

For `COc1cc(N2CCC(N3CCN(C)CC3)CC2)ccc1Nc1ncc(Cl)c(Nc2ccccc2P(C)(C)=O)n1` [Brigatinib, reference compound], the IC50 (MST4) was 1.08 ± 0.502 µM, the IC50 (P38 alpha) was over 10 µM and the “levels of phosphorylation of STAT3 and STAT5 in tumor tissue” value [1] was “decreased”. It also gave an IC50 (MAPKAPK2) of over 10 µM, an IC50 (Ba/F3 cells; read-out: IC50 BaF3) of 2.12 ± 0.023 µM and an IC50 [2] of 0.469 µM. It also gave an IC50 ([3]; read-out: IC50 BaF3 SLC34A2-ROS1) of 0.00649 µM, an IC50 [4] of 0.425 µM and an IC50 [5] of 0.479 ± 0.11 µM. For the same compound, the IC50 [6] was 0.009 µM, the IC50 ([7]; read-out: IC50 BaF3-EML4-ALK C1156Y) was 0.014 µM and the IC50 ([8]; read-out: IC50 BaF3-EML4-ALK WT) was 0.006 µM. For the same compound, the IC50 (SRC) was 0.95 ± 0.309 µM, the IC50 (KDR) was 0.178 ± 0.052 µM and the IC50 (c-MET) was 1.83 ± 0.231 µM. For the same compound, the IC50 (CHK1) was 0.07 ± 0.032 µM and the IC50 (MINK) was 4.04 ± 2.16 µM.

With `COc1cc(N2CCC3(CCN(C)CC3)CC2)ccc1Nc1ncc(Cl)c(Nc2ccccc2P(C)(C)=O)n1` [Iruplinalkib] the IC50 (MST4) was 1.4 ± 0.251 µM, the IC50 (P38 alpha) was over 10 µM and the “inhibition of OATP1B3 uptake activity” value (OATP1B3; HEK293) was “can inhibit the uptake activity”. It also gave an inhibition at 0.5 μM (OATP1B3; [9]) of 7.2%, an inhibition at 5 μM (OATP1B3; [9]) of 15.3% and an inhibition at 50 μM (OATP1B3; [9]) of 41.1%. For the same compound, the “levels of phosphorylation of STAT3 and STAT5 in tumor tissue” value [1] was “decreased”, the IC50 (MAPKAPK2) was over 10 µM and the IC50 (EGFR wild type) was 0.035 µM. For the same compound, the IC50 (FGFR1) was 0.249 ± 0.071 µM, the IC50 (Ba/F3 cells; Mus musculus, BaF3) was 2.21 ± 0.094 µM and the IC50 ([2]; Mus musculus, NIH3T3) was 0.343 µM. For the same compound, the IC50 ([3]; Mus musculus, BaF3) was 0.00405 µM, the IC50 ([4]; Homo sapiens, HCC78) was 0.228 µM and the IC50 ([5]; Homo sapiens, NCI-H1975) was 0.508 ± 0.096 µM. The IC50 [6] was 0.0045 ± 0.0007 µM, the IC50 ([7]; Mus musculus, BaF3) was 0.009 µM and the IC50 ([8]; Mus musculus, BaF3) was 0.004 µM. For the same compound, the IC50 (SRC) was 1.68 ± 0.872 µM, the IC50 (KDR; read-out: IC50 KDR) was 0.26 ± 0.128 µM and the “uptake transport activity ratio, OCT2” value (OCT2; 30 µM, 3 µM, 0.3 µM, HEK293) was “less than two”. For the same compound, the “uptake substrate of OCT2” value (OCT2; HEK293) was “not an uptake substrate”, the “Uptake transport activity, Mean” value (OCT2; MOCK293 (OCT2 set), 0.3 μM) was 7.280 pmol/mg protein/min and the “Uptake transport activity, Mean” value (OCT2; MOCK293 (OCT2 set), 3 μM) was 80.35 pmol/mg protein/min. For the same compound, the “Uptake transport activity, Mean” value (OCT2; MOCK293 (OCT2 set), 30 μM) was 999.8 pmol/mg protein/min, the “Uptake transport activity, Mean” value (OCT2; OCT2-293, 0.3 μM) was 8.178 pmol/mg protein/min and the “Uptake transport activity, Mean” value (OCT2; OCT2-293, 3 μM) was 88.23 pmol/mg protein/min. The “Uptake transport activity, Mean” value (OCT2; OCT2-293, 30 μM) was 1165.9 pmol/mg protein/min, the “Ratio of uptake transit activity” value (OCT2; 0.3 μM) was 1.12 and the “Uptake transport activity, Net value” (OCT2; 0.3 μM) was 0.90 pmol/mg protein/min. The “Ratio of uptake transit activity” value (OCT2; 3 μM) was 1.10, the “Uptake transport activity, Net value” (OCT2; 3 μM) was 7.88 pmol/mg protein/min and the “Ratio of uptake transit activity” value (OCT2; 30 μM) was 1.17. The “Uptake transport activity, Net value” (OCT2; 30 μM) was 166.05 pmol/mg protein/min, the IC50 (c-MET) was 2.94 ± 0.232 µM and the IC50 (CHK1) was 0.185 ± 0.041 µM. It also gave an IC50 (MINK) of 3.89 ± 1.06 µM.
